The values that follow come from US20190105367A1, “ANTIMICROBIAL 4-OXOQUINOLIZINES” (Emergent Product Development Gaithersburg Inc., priority 2011, published 2019).

One data set deals with S. aureus 101. The data set is described as follows: MIC, standard panel of Gram-positive and Gram-negative strains (Example 2). It is filed as cell-based. Conditions: Staphylococcus aureus.
In another data set the test system is E. faecalis 29212. The data set is described as above. It is filed as cell-based, Enterococcus faecalis. To be noted: Enterococcus faecalis, 29212; read-out: MIC E. faecalis 29212.
Another data set deals with E. faecium 19434. The description is as above. To be noted: Enterococcus faecium. It counts as cell-based.
Another data set deals with E. cloacae 13047. Described as above. Conditions: Enterobacter cloacae, 13047; read-out: MIC E. cloacae 13047. It is filed as cell-based, Enterobacter cloacae.
Another data set concerns A. baumanii 19606. Described as above. It counts as cell-based. To be noted: Acinetobacter baumannii.
A further data set concerns S. aureus SMITH. The data set is described as follows: MIC, panel of quinolone-resistant strains (Example 2). It is filed as cell-based. Conditions: Staphylococcus aureus; CIP R; read-out: MIC S. aureus SMITH.
The subject of a further data set is S. pneumoniae 49619. The description is as above. To be noted: Streptococcus pneumoniae, 49619; LEV S; read-out: MIC S. pneumoniae 49619. It counts as cell-based, Streptococcus pneumoniae.
The next data set is described as follows: Cytotoxicity (Example 7). To be noted: human, HEPG2 V1 cells. It counts as cell-based. Here is the method: The 4-oxoquinolizine compounds of the invention preferably have a low cytotoxicity against human cells. […].
Cytotoxicity was determined for the instant 4-oxoquinolizine compounds which show low cytotoxicity. (see Table 17 following). […]

Another data set relates to A. baumannii A329. The data set is described as follows: MIC without and with sub-inhibitory polymyxin B (Example 4). It counts as cell-based, Acinetobacter baumannii. Conditions: +0.06 μg/ml PB, 2nd experiment; for MIC without PB/MIC + PB: A. baumannii A329.
Another data set deals with A. baumannii A489. The data set is described as follows: Preliminary MBC without and with sub-inhibitory polymyxin B (Example 4). It is filed as cell-based, Acinetobacter baumannii. Conditions: Acinetobacter baumannii, preliminary MBC.
Data set [1] deals with A. baumannii A14. The experiment in a line: MIC without and with sub-inhibitory polymyxin B (Example 4). It counts as cell-based, Acinetobacter baumannii. Conditions: 2nd experiment.
For data set [2], the system named is A. baumannii A14. The experiment in a line: Preliminary MBC without and with sub-inhibitory polymyxin B (Example 4). It counts as cell-based, Acinetobacter baumannii. To be noted: A. baumannii A14, preliminary MBC, 1st experiment; for MBC +0.06 μg/ml PB: +0.06 μg/ml polymyxin B.
In another data set the test system is S. aureus 25923 HS. The data set is described as follows: MIC, standard panel of Gram-positive and Gram-negative strains (Example 2). It is filed as cell-based. To be noted: Staphylococcus aureus, read-out: MIC S. aureus 25923 HS.
For data set [3], the system named is strains of A. baumannii and one strain of Acinetobacter sp. The data set is described as follows: MIC without polymyxin B, panel of Acinetobacter strains (Example 4). Conditions: Acinetobacter baumannii, ATCC19606, read-out: MIC range without PB Oct. 1, 2006 n = 8, 1st experiment; resistant strains, ATCC 19606, A329, A390 and A473 not taken. It counts as cell-based.

The mark [4] stands for this setting: A489, A. baumannii A489, +[…] PB, 2nd experiment, read-out: MBC.
[5] abbreviates: A489, read-out: MBC +[…] PB, A. baumannii A489, +[…] polymyxin B, 1st experiment.
[6] abbreviates: A. baumannii A14, +0.06 μg/ml PB.
Setting [7] is: Acinetobacter baumannii, A14, A. baumannii A14, without PB, read-out: MIC.

pIC50: −log10 of the molar value. Converted amounts (≈) assume the structure as drawn. Where two headings read alike, the source gives them in different places. Some results are limits rather than exact numbers.

Take `Cc1c(-c2cc(Cl)c(N)c(Cl)c2)ccn2c(=O)c(C(=O)O)cc(C3CC3)c12` [Compound 3, 8-(3,5-dichloro-4-amino-phenyl)-1-cyclopropyl-9-methyl-4-oxo-quinolizine-3-carboxylic acid]: the minimum inhibitory concentration (MIC) against S. aureus 101 amounted to 0.06 µg/mL (≈ 0.149 µM); in the data set on E. faecalis 29212, 0.016 µg/mL (≈ 0.0397 µM); against E. faecium 19434, 0.5 µg/mL (≈ 1.24 µM); with E. cloacae 13047 it was 0.5 µg/mL (≈ 1.24 µM); in the data set with A. baumanii 19606, 0.25 µg/mL (≈ 0.62 µM); in the data set with S. aureus SMITH, 0.5 µg/mL (≈ 1.24 µM). Besides, the figures for the MIC in the data set with S. pneumoniae 49619, in the data set on A. baumannii A14 [1] (setting [6]) and in the data set on A. baumannii A14 [1] (setting [7]) were 0.5 µg/mL (≈ 1.24 µM), 0.125 µg/mL (≈ 0.31 µM) and above 32 µg/mL, respectively. Also, the pIC50 in “Cytotoxicity (Example 7)” was 4.30. The “MIC without PB/MIC + PB” value is 32 in the data set with A. baumannii A329 and at least 256 in the data set with A. baumannii A14 [1] (setting [6]). Also, the MBC in the data set with A. baumannii A489 (setting [4]) is at most 0.03 µg/mL; with A. baumannii A489 (setting [5]), 0.06 µg/mL (≈ 0.149 µM); with A. baumannii A14 [2] (Acinetobacter baumannii, without polymyxin B, read-out: MBC without PB), above 32 µg/mL. Moreover, in the data set on A. baumannii A14 [2], the “MBC +0.06 μg/ml PB” value was determined as 1 µg/mL.

With `Cc1c(-c2ccc(N)cc2)ccn2c(=O)c(C(=O)O)cc(C3CC3)c12` [Compound 8, 8-(4-amino-phenyl)-1-cyclopropyl-9-methyl-4-oxo-quinolizine-3-carboxylic acid], the MIC is 0.25 µg/mL (≈ 0.748 µM) in the data set with S. aureus 25923 HS; 0.5 µg/mL (≈ 1.5 µM) against S. aureus 101; 0.03 µg/mL (≈ 0.0897 µM) with E. faecalis 29212; 0.5 µg/mL (≈ 1.5 µM) against E. faecium 19434; 0.25 µg/mL (≈ 0.748 µM) with E. cloacae 13047; 0.125 µg/mL (≈ 0.374 µM) in the data set on A. baumanii 19606. The MIC was 2 to 32 µg/mL (≈ 5.98 to 95.7 µM) in data set [3]; 2 µg/mL (≈ 5.98 µM) with A. baumannii A329 (Acinetobacter baumannii, A329, A. baumannii A329, read-out: MIC); 0.5 µg/mL (≈ 1.5 µM) in the data set with A. baumannii A14 [1] (setting [6]); 8 µg/mL (≈ 23.9 µM) in the data set with A. baumannii A14 [1] (setting [7]). Besides, the negative logarithm of the IC50 (pIC50) in “Cytotoxicity (Example 7)” is 4.05. The “MIC without PB/MIC + PB” value stood at 4 in the data set with A. baumannii A329 and 16 in the data set on A. baumannii A14 [1] (setting [6]). Further, the MBC with A. baumannii A489 (setting [4]) and in the data set on A. baumannii A489 (setting [5]) was at most 0.03 µg/mL in each case. In addition, in the data set on A. baumannii A14 [2], the “MBC +0.06 μg/ml PB” value worked out at 1 µg/mL.
